Source: ChEMBL document CHEMBL1201862, “PubChem BioAssay data set” (2004)
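Interpolation was linear, between the two tested concentrations surrounding the appropriate level; five concentrations were tested over 48 hours in 96-well plates. At the GI50, growth is halved.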 Activity calls are given as the source filed them. No stated cut-off is given here; in the data, active = GI50 up to about 1.1 µM and inactive = higher.

What was measured:
Assay in all cases: NCI-60 cell line screen, 48 h
[1] = tested on: 786-0
[2] = tested on: A498
[3] = tested on: A549
[4] = tested on: ACHN
[5] = tested on: BT-549
[6] = tested on: CAKI-1
[7] = tested on: CCRF-CEM
[8] = tested on: COLO 205
[9] = tested on: DU-145
[10] = tested on: EKVX
[11] = tested on: HCC 2998
[12] = tested on: HCT-116
[13] = tested on: HCT-15
[14] = tested on: HL-60
[15] = tested on: HOP-62
[16] = tested on: HT-29
[17] = tested on: Hs-578T
[18] = tested on: IGROV-1
[19] = tested on: K562
[20] = tested on: KM12
[21] = tested on: LOX IMVI
[22] = tested on: M14
[23] = tested on: MCF7
[24] = tested on: MDA-MB-231
[25] = tested on: MDA-MB-435
[26] = tested on: MDA-N
[27] = tested on: MOLT-4
[28] = tested on: Malme-3M
[29] = tested on: NCI-H226
[30] = tested on: NCI-H23
[31] = tested on: NCI-H460
[32] = tested on: NCI-H522
[33] = tested on: NCI/ADR-RES
[34] = tested on: OVCAR-3
[35] = tested on: OVCAR-4
[36] = tested on: OVCAR-5
[37] = tested on: OVCAR-8
[38] = tested on: PC-3
[39] = tested on: RPMI-8226
[40] = tested on: RXF 393
[41] = tested on: SF-268
[42] = tested on: SF-295
[43] = tested on: SF-539
[44] = tested on: SK-MEL-28
[45] = tested on: SK-MEL-2
[46] = tested on: SK-MEL-5
[47] = tested on: SK-OV-3
[48] = tested on: SN12C
[49] = tested on: SNB-19
[50] = tested on: SNB-75
[51] = tested on: SW-620
[52] = tested on: T47D
[53] = tested on: TK-10
[54] = tested on: U-251
[55] = tested on: UACC-257
[56] = tested on: UACC-62
[57] = tested on: UO-31
[58] = tested on: HOP-92
[59] = tested on: SR

Measured: GI50

Cc1cc2c(cc1Cl)SC(NNC1=NCCN1)=NS2(=O)=O
> 10 µM: [13]
active: [23] 0.00248 µM
inactive: [1] > 10 µM | [2] > 10 µM | [3] > 10 µM | [4] > 10 µM | [5] > 10 µM | [6] > 10 µM | [7] > 10 µM | [8] > 10 µM | [9] > 10 µM | [10] > 10 µM | [11] > 10 µM | [12] > 10 µM | [14] > 10 µM | [15] > 10 µM | [16] > 10 µM | [17] > 10 µM | [18] > 10 µM | [19] > 10 µM | [20] > 10 µM | [21] > 10 µM | [22] > 10 µM | [24] > 10 µM | [25] > 10 µM | [26] > 10 µM | [27] > 10 µM | [28] > 10 µM | [29] > 10 µM | [30] > 10 µM | [31] > 10 µM | [32] > 10 µM | [33] > 10 µM | [34] > 10 µM | [35] > 10 µM | [36] > 10 µM | [37] > 10 µM | [38] > 10 µM | [39] > 10 µM | [40] > 10 µM | [41] > 10 µM | [42] > 10 µM | [43] > 10 µM | [44] > 10 µM | [45] > 10 µM | [46] > 10 µM | [47] > 10 µM | [48] > 10 µM | [49] > 10 µM | [50] > 10 µM | [51] > 10 µM | [52] > 10 µM | [53] > 10 µM | [54] > 10 µM | [55] > 10 µM | [56] > 10 µM | [57] > 10 µM

CCc1ccc(Nc2cc(=O)[nH]c(SCc3ccccc3)n2)cc1
inactive: [1] 43.6 µM | [2] > 100 µM | [3] > 100 µM | [4] 50.7 µM | [5] > 100 µM | [6] > 100 µM | [7] > 100 µM | [8] > 100 µM | [9] > 100 µM | [10] 57.7 µM | [12] 80.7 µM | [14] > 100 µM | [15] 32.5 µM | [58] 31.2 µM | [16] > 100 µM | [17] > 100 µM | [18] > 100 µM | [19] > 100 µM | [20] > 100 µM | [21] > 100 µM | [22] > 100 µM | [23] > 100 µM | [24] 4.17 µM | [25] > 100 µM | [26] > 100 µM | [27] > 100 µM | [28] > 100 µM | [29] > 100 µM | [30] 61.5 µM | [32] > 100 µM | [33] 74.1 µM | [34] 39.4 µM | [36] > 100 µM | [37] 44.9 µM | [39] > 100 µM | [40] > 100 µM | [41] 73.1 µM | [42] 46.2 µM | [43] 52 µM | [45] > 100 µM | [46] 78 µM | [47] > 100 µM | [48] > 100 µM | [49] 38.2 µM | [50] 30.3 µM | [59] > 100 µM | [51] > 100 µM | [52] > 100 µM | [53] > 100 µM | [55] > 100 µM | [56] 48.8 µM | [57] > 100 µM
> 100 µM: [13]
